# Measured values from patent US20230365959A1, “METHOD FOR IMPROVING THE STABILITY OF A COMPOSITION COMPRISING A FLAVIN-DEPENDENT LACTATE DEHYDROGENASE” (KIKKOMAN CORPORATION, priority 2020, published 2023).
# How the values were obtained:
# Assay type in all cases: biochemical
# [1] = tested on: lactate dehydrogenase from Ogataea parapolymorpha (OgLDH); assay: Thermal stability of OgLDH (residual activity ratio after heat treatment); details: OgLDH 2 U/mL; compound 300 mM; potassium phosphate buffer pH 7.5; 50°C for 15 minutes
# Protocol: (§1) The thermal stability of LDH was evaluated by heating LDH at a given temperature for a given time and comparing the activities before and after heating. […] Further, LDH activity of an LDH solution allowed to stand still on ice without any heat treatment was measured. Based on the activity of this case without any heat treatment taken as 100, the activities of LDH solutions after heat treatment were calculated to determine the residual activity ratio (%). More specifically, the residual activity ratio (%) can be obtained by measuring LDH activity value (a) of a solution before heat treatment or before long-term storage, and LDH activity value (b) of a solution after heat treatment or after long-term storage, and then, calculating ((b)/(a)×100).
# (§2) The activity of LDH was determined in accordance with the following procedure. […] Subsequently, a 30 mM PMS solution (50 μL) and an enzyme sample solution (50 μL) were added to the mixture to initiate a reaction. Absorbance at 520 nm was measured at the time of initiation of the reaction and over time and, the degree of reduction (ΔA520) in absorbance per minute as the enzymatic reaction progresses was obtained and LDH activity was calculated in accordance with the following Mathematical formula 2. Here, LDH activity is expressed by an enzyme (LDH) unit, and 1U is defined as the amount of the enzyme that can reduce 1 μmol DCIP per minute at 37° C. in the presence of 10 mM L-lactate.
# Stability evaluation tests were conducted to check the improvement effect of malic acid on the stability of various LDHs. […] Each of these diluted enzyme solutions (a mixture of an enzyme and L-malic acid, LDH concentration: 2 U/mL, L-malic acid concentration: 300 mM) was heated in accordance with the thermal-stability evaluation method described in Section 4. More specifically, PkLDH was treated at 55° C., whereas, CaLDH and OgLDH were treated at 50° C. for 15 minutes and then the residual activity ratio (%) was calculated, based on the activity before heating taken as 100. As a comparative example, a sample without adding any L-malic acid in the enzyme diluent was subjected to the same experiment, and the ratio of residual activity in both cases were compared.
# (§3) Using the purified OgLDH preparation obtained above, the ratios of remaining activities (%) in the presence and absence of a LDH stabilizer were compared in accordance with the LDH thermal stability evaluation method described in Section 4. In this manner, a stabilizer was searched.
# The pH of the LDH solution was adjusted to be 7.5 after each of the compounds was added. Heat treatment was carried out at 50° C. for 15 minutes.
# [2] = target: T1, lactate dehydrogenase from Saccharomyces cereviciae (ScLDH) (Saccharomyces cerevisiae, UniProt P00175); assay: Thermal stability of ScLDH (supernatant of crushed bacterial cells); details: ScLDH 2 U/mL; compound 300 mM; potassium phosphate buffer pH 7.5; 40°C for 15 minutes
# T1 construct: made in house; host or cells: Escherichia coli BL21 (pKK223-3-ScLDH); unpurified supernatant of crushed cells
# T1 sequence (P00175 86-591): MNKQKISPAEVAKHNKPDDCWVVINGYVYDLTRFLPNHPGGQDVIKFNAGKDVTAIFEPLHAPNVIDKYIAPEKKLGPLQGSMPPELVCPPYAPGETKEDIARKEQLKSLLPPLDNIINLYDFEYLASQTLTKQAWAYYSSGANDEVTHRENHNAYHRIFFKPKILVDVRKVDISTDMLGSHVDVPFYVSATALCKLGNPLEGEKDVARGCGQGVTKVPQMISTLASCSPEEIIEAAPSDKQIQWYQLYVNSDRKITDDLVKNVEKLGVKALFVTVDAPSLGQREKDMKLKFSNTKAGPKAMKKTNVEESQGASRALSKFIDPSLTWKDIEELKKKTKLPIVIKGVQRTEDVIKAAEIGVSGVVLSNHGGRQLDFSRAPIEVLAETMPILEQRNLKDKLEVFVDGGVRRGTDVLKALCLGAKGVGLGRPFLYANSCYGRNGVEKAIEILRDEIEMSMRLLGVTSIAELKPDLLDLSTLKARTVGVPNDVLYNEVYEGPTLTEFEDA
# Protocol: as §1, §2
# as §3, with “supernatant of a solution comprising crushed ScLDH bacterial cells” for “purified OgLDH preparation”
# The pH of the LDH solution was adjusted to be 7.5 after each of the compounds was added. Heat treatment was carried out at 40° C. for 15 minutes.
# [3] = tested on: lactate dehydrogenase from Pichia kudriavzevii (PkLDH); assay: Thermal stability of PkLDH in 150 mM HEPES buffer; details: PkLDH 2 U/mL; 150 mM HEPES buffer pH 7.5; added compound 350 mM; 55°C for 15 minutes
# Protocol: as §1
# as §2, with “Here, LDH activity is expressed by an enzyme (LDH) unit, and 1U is defined as the amount of the enzyme that can reduce 1 μmol DCIP per minute at 37° C. in the presence of 10 mM L-lactate.” left out
# [4] = tested on: lactate dehydrogenase from Pichia kudriavzevii (PkLDH); assay: Chronoamperometry with printed electrode to which PkLDH plus stabilizer was applied and dried (2 mM mPMS/PBS); details: added compound 50 mM, LDH 1 U dried at 40°C for 60 minutes, +200 mV
# Protocol: An enzyme electrode was prepared using the purified PkLDH preparation obtained above and chronoamperometry was carried out. Each of the compounds was added to an enzyme solution in advance and tested whether or not a stabilizing effect of the enzyme during a drying step was exerted. LDH (1 U) solutions comprising compounds in a concentration (0.2% (w/v), 2% (w/v) and 50 mM, respectively) as described in Table 8 were each applied to a screen-printed carbon electrode C110 (manufactured by Metrohm-Dropsens) in an amount of 4 μL and dried at 40° C. for 60 minutes. The same procedure was repeated using an LDH solution without adding any one of the compounds. Each of the electrodes prepared was connected to ALS electrochemical analyzer 814D (manufactured by BAS) using a dedicated connector (DRP-CAC, manufactured by Drop Sense). Subsequently, 100 μL of a 2 mM mPMS/PBS solution was added dropwise to dissolve the dried LDH. The applied voltage was +200 mV (vs Ag/Ag+). An L-sodium lactate solution was added and a response current value 5 seconds after initiation of measurement was recorded. […] Then, an L-sodium lactate solution was added such that the final concentration thereof would be 2 to 10 mM, and a response current value 5 seconds after initiation of measurement was recorded.
smiles,measurement,setting,value
O=C([O-])CC(=O)[O-].[Na+].[Na+] [disodium malonate],LDH stability improving effect,[1],96%
same,stability improving effect on ScLDH,[2],26%
same,Residual activity ratio (%),[3],101%
same,"Current value 5 seconds later (μA), 0 mM lactate",[4]; 0 mM lactate,0.21 μA
same,"Current value 5 seconds later (μA), 2 mM lactate",[4]; 2 mM lactate,61.8 μA
